Experimental data: US11034650B2, “Compounds useful for treating a Mannheimia haemolytica or Histophilus somni infection” (Intervet Inc., priority 2016, dated 2021)
Converted amounts (≈) assume the structure as drawn.

Assays:
Format in all cases: cell-based
[1] = system: Mannheimia haemolytica MH 6357 (M7/2, reference strain, cattle infection strain); assay: MIC, broth-microdilution (CLSI VET01-A4), strain MH 6357; conditions: Mannheimia haemolytica strain MH 6357, broth-microdilution; unit assumed
Method: (§1) For example, representative compounds were tested against ***, Mannheimia haemolytica and Pasteurella multocida, using the conventional broth-dilution assay.
(§2) The Minimum inhibitory concentrations (MIC) of compounds according to the invention for a number of veterinary bacterial pathogens were determined by the broth-microdilution method according to CLSI document VET01-A4.
(§3) Microdilution trays containing a doubling dilution series of the test compound were used for the tests. The MIC results were interpreted according to the CLSI documents VET01-S3. The lowest concentration of compound at which no visible growth (i.e. no turbidity) detected by the unaided eye was recorded as the MIC.

[2] = system: Mannheimia haemolytica MH 10720 (154, BRD field isolate); assay: MIC, broth-microdilution (CLSI VET01-A4), strain MH 10720; conditions: Mannheimia haemolytica strain MH 10720, broth-microdilution; unit assumed
Method: as §1, §2, §3

[3] = system: Mannheimia haemolytica MH 13093 (XB0472-6014.1, BRD field isolate); assay: MIC, broth-microdilution (CLSI VET01-A4), strain MH 13093; conditions: Mannheimia haemolytica strain MH 13093, broth-microdilution; unit assumed
Method: as §1, §2, §3

[4] = system: Pasteurella multocida PM 6267 (P 2225 (L386), reference strain, mouse infection strain); assay: MIC, broth-microdilution (CLSI VET01-A4), strain PM 6267; conditions: Pasteurella multocida strain PM 6267, broth-microdilution; unit assumed
Method: as §1, §2, §3

[5] = system: Mannheimia haemolytica MH 13065 (XB0446-6003.9, BRD field isolate); assay: MIC, broth-microdilution (CLSI VET01-A4), strain MH 13065; conditions: Mannheimia haemolytica strain MH 13065, broth-microdilution; unit assumed
Method: as §1, §2, §3

[6] = system: Mannheimia haemolytica MH 12587 (1071, BRD field isolate, macrolide-resistance: erm+, E+); assay: MIC, broth-microdilution (CLSI VET01-A4), strain MH 12587; conditions: Mannheimia haemolytica strain MH 12587, broth-microdilution; unit assumed
Method: as §1, §2, §3

[7] = system: Mannheimia haemolytica MH 6374 (ATCC 33396, reference strain); assay: MIC, broth-microdilution (CLSI VET01-A4), strain MH 6374; conditions: Mannheimia haemolytica strain MH 6374, broth-microdilution; unit assumed
Method: as §1, §2, §3

[8] = system: Pasteurella multocida PM 10775 (080130003051, BRD field isolate); assay: MIC, broth-microdilution (CLSI VET01-A4), strain PM 10775; conditions: Pasteurella multocida strain PM 10775, broth-microdilution; unit assumed
Method: as §1, §2, §3

[9] = system: Pasteurella multocida PM 12080 (IV102277-0093, BRD field isolate); assay: MIC, broth-microdilution (CLSI VET01-A4), strain PM 12080; conditions: Pasteurella multocida strain PM 12080, broth-microdilution; unit assumed
Method: as §1, §2, §3

Row | MIC PM 6267 [4] [µg/mL] | MIC PM 10775 [8] [µg/mL] | MIC PM 12080 [9] [µg/mL] | Structure (SMILES) | MIC MH 6357 [1] [µg/mL] | MIC MH 10720 [2] [µg/mL] | MIC MH 13093 [3] [µg/mL] | MIC MH 13065 [5] [µg/mL] | MIC MH 12587 [6] [µg/mL] | MIC MH 6374 [7] [µg/mL]
1 | 0.2 (≈ 0.418 µM) | ≤ 0.1 | 1.6 (≈ 3.35 µM) | O=C(N[C@@H](CO)C(=O)NO)c1ccc(C#Cc2ccc(CNCc3ccc(Cl)cc3)cc2)cc1 [Compound 87] | 3.1 (≈ 6.49 µM) | 1.6 (≈ 3.35 µM) | 3.1 (≈ 6.49 µM) | 3.1 (≈ 6.49 µM) | 6.3 (≈ 13.2 µM) | 0.8 (≈ 1.67 µM)
2 | 0.2 (≈ 0.422 µM) | ≤ 0.1 | 1.6 (≈ 3.38 µM) | COc1ccc(CNCc2ccc(C#Cc3ccc(C(=O)N[C@@H](CO)C(=O)NO)cc3)cc2)cc1 [Compound 88] | 6.3 (≈ 13.3 µM) | 1.6 (≈ 3.38 µM) | 12.5 (≈ 26.4 µM) | 3.1 (≈ 6.55 µM) | 6.3 (≈ 13.3 µM) | 1.6 (≈ 3.38 µM)
3 | 0.4 (≈ 0.782 µM) | ≤ 0.1 | 1.6 (≈ 3.13 µM) | O=C(N[C@@H](CO)C(=O)NO)c1ccc(C#Cc2ccc(CNCc3ccc(C(F)(F)F)cc3)cc2)cc1 [Compound 89] | 6.3 (≈ 12.3 µM) | 1.6 (≈ 3.13 µM) | 6.3 (≈ 12.3 µM) | 6.3 (≈ 12.3 µM) | 12.5 (≈ 24.4 µM) | 3.1 (≈ 6.06 µM)
4 | ≤ 0.1 | ≤ 0.1 | 0.8 (≈ 1.8 µM) | O=C(N[C@@H](CO)C(=O)NO)c1ccc(C#Cc2ccc(CNCc3ccncc3)cc2)cc1 [Compound 90] | 3.1 (≈ 6.97 µM) | 1.6 (≈ 3.6 µM) | 1.6 (≈ 3.6 µM) | 1.6 (≈ 3.6 µM) | 3.1 (≈ 6.97 µM) | 1.6 (≈ 3.6 µM)
5 | 0.4 (≈ 0.848 µM) | ≤ 0.1 | 1.6 (≈ 3.39 µM) | Cc1ccc(CNCc2ccc(C#Cc3ccc(C(=O)N[C@@H](CO)C(=O)NO)cc3)cc2)cc1C [Compound 91] | 6.3 (≈ 13.4 µM) | 1.6 (≈ 3.39 µM) | 12.5 (≈ 26.5 µM) | 6.3 (≈ 13.4 µM) | 12.5 (≈ 26.5 µM) | 3.1 (≈ 6.57 µM)
6 | ≤ 0.1 | ≤ 0.1 | ≤ 0.1 | CC(C)[C@H](NC(=O)c1ccc(C#Cc2ccc(CNC3CC3)cc2)cc1)C(=O)NO [Compound 92] | 0.8 (≈ 1.97 µM) | ≤ 0.1 | 0.2 (≈ 0.493 µM) | ≤ 0.1 | 0.2 (≈ 0.493 µM) | ≤ 0.1
7 | ≤ 0.1 | ≤ 0.1 | 1.6 (≈ 3.93 µM) | CC(C)NCc1ccc(C#Cc2ccc(C(=O)N[C@H](C(=O)NO)C(C)C)cc2)cc1 [Compound 93] | 6.3 (≈ 15.5 µM) | 3.1 (≈ 7.61 µM) | 12.5 (≈ 30.7 µM) | 6.3 (≈ 15.5 µM) | 12.5 (≈ 30.7 µM) | 6.3 (≈ 15.5 µM)
8 | ≤ 0.1 | ≤ 0.1 | 0.8 (≈ 1.97 µM) | C=CCNCc1ccc(C#Cc2ccc(C(=O)N[C@H](C(=O)NO)C(C)C)cc2)cc1 [Compound 94] | 12.5 (≈ 30.8 µM) | 0.8 (≈ 1.97 µM) | 1.6 (≈ 3.95 µM) | 0.8 (≈ 1.97 µM) | 1.6 (≈ 3.95 µM) | 0.8 (≈ 1.97 µM)
9 | ≤ 0.1 | ≤ 0.1 | 0.4 (≈ 0.918 µM) | CC(C)[C@H](NC(=O)c1ccc(C#Cc2ccc(CNCC(C)(C)C)cc2)cc1)C(=O)NO [Compound 95] | 1.6 (≈ 3.67 µM) | 0.8 (≈ 1.84 µM) | 3.1 (≈ 7.12 µM) | 3.1 (≈ 7.12 µM) | 6.3 (≈ 14.5 µM) | 3.1 (≈ 7.12 µM)
10 | 0.2 (≈ 0.472 µM) | ≤ 0.1 | 0.8 (≈ 1.89 µM) | COCCNCc1ccc(C#Cc2ccc(C(=O)N[C@H](C(=O)NO)C(C)C)cc2)cc1 [Compound 96] | 3.1 (≈ 7.32 µM) | 0.8 (≈ 1.89 µM) | 3.1 (≈ 7.32 µM) | 1.6 (≈ 3.78 µM) | 12.5 (≈ 29.5 µM) | 0.8 (≈ 1.89 µM)
11 | 0.2 (≈ 0.474 µM) | ≤ 0.1 | 0.8 (≈ 1.9 µM) | CCN(CC)Cc1ccc(C#Cc2ccc(C(=O)N[C@H](C(=O)NO)C(C)C)cc2)cc1 [Compound 97] | 12.5 (≈ 29.7 µM) | 3.1 (≈ 7.35 µM) | 12.5 (≈ 29.7 µM) | 12.5 (≈ 29.7 µM) | 12.5 (≈ 29.7 µM) | 12.5 (≈ 29.7 µM)
